Test results reported in patent US6808875B2, “Methods for screening cellular proliferation using isotope labels” (priority 1997, dated 2004).

What was measured:
[1] = Plasma glucose enrichment during labeled glucose infusion in rats; type: in vivo
Protocol: Trimethylsilyl derivatives of nucleosides were synthesized by incubation of lyophilized hydrolysates with BSTFA:pyridine (4:1) at 100° C. for 1 hour. Samples were analyzed by GC-MS (DB-17 HT column, J&W Scientific, Folsom Calif.; HP 5890 GC and 5971MS, Hewlett Packard, Palo Alto, Calif.). Abundances of ions at mass to charge ratio (m/z) 467 and 469 were quantified under selected ion recording mode for deoxyadenosine (dA); and m/z 555 and 557 were monitored for deoxyguanosine (dG). Under the derivatization and GC-MS conditions employed, the purines (dA and dG) gave larger peaks (FIG. 3) than the pyrimidines, resulting in greater sensitivity and a higher signal-to-noise ratio. To measure the enrichment of glucose, plasma or culture media were deproteinized with perchloric acid and passed through anion and cation exchange columns (Neese et al., 1995, J. Biol. Chem. 270:14452-14463). The glucose penta-acetate derivative was formed by incubation with acetic anhydride in pyridine. GC-MS analysis was performed as described previously (Neese et al., 1995, J. Biol. Chem […]), monitoring m/z 331 and 333 under selected ion recording.
Four rats (approximately 250 g) were infused with labeled glucose. […] DNA was extracted from cell preparations, then hydrolyzed to nucleosides and analyzed by GC-MS (FIG. 2). […]

[2] = human, in vivo
Protocol: (§1) Trimethylsilyl derivatives of nucleosides were synthesized by incubation of lyophilized hydrolysates with BSTFA:pyridine (4:1) at 100° C. for 1 hour. Samples were analyzed by GC-MS (DB-17 HT column, J&W Scientific, Folsom Calif.; HP 5890 GC and 5971MS, Hewlett Packard, Palo Alto, Calif.). Abundances of ions at mass to charge ratio (m/z) 467 and 469 were quantified under selected ion recording mode for deoxyadenosine (dA); and m/z 555 and 557 were monitored for deoxyguanosine (dG). Under the derivatization and GC-MS conditions employed, the purines (dA and dG) gave larger peaks (FIG. 3) than the pyrimidines, resulting in greater sensitivity and a higher signal-to-noise ratio. […]
One subject was a healthy normal volunteer and the other three were HIV-seropositive men, who were participating in lymphocyte kinetic studies (blood CD4 T cell counts in the range 215-377/mm^3). […] Granulocyte DNA was extracted, hydrolyzed to nucleosides and analyzed by GC-MS, as described in Section 6.1.2, supra. […]
All were clinically stable at the time of investigation. […] Granulocytes were isolated and dA enrichment measured from DNA. […]
48-hr constant intravenous infusions of labeled glucose were performed to ensure a representative time sample of T cell kinetics. Enrichments of plasma glucose were measured every 12 hr during the infusion. […]

HIV-1 = conditions: Patient #6, previous protease inhibitor
[3] = test system: lymphocytic cell line, H9; test: Label incorporation into dA of DNA in cultured H9 cells (GC-MS, cell counting); type: cell-based; conditions: H9, unlabeled glycerol
Protocol: (§2) DNA was prepared from cells or tissues by phenol-chloroform-isoamyl alcohol extraction of cell suspensions or tissue homogenates. Yield and purity were confirmed by optical density. After heat denaturation, DNA was hydrolyzed enzymatically to deoxyribonucleosides by sequential digestion with nuclease P1, phosphodiesterase, and alkaline phosphatase, as described by Crain et al. (Crain, 1990, Methods Enzymol. 193:782-790). Nucleoside yield and purity were confirmed by HPLC using a C-18 column and water-methanol gradient (Shigenaga et al., 1994, Methods Enzymol. 234:16-33).
as §1, with “(dG).” for “(dG). Under the derivatization and GC-MS conditions employed, the purines (dA and dG) gave larger peaks (FIG. 3) than the pyrimidines, resulting in greater sensitivity and a higher signal-to-noise ratio.”
(§3) Two cell lines were used: a hepatocyte cell line, HepG2, and a lymphocytic cell line, H9, which is a CD4^+ T cell line. […] In both cases the number of cells present was measured by counting an aliquot on a Coulter ZM0901 cell counter. […]

[4] = test system: hepatocyte cell line, HepG2; test: Label incorporation into dA of DNA in cultured HepG2 cells (GC-MS, cell counting); type: cell-based; conditions: HepG2, unlabeled glycerol
Protocol: as §2
as §1, with “(dG).” for “(dG). Under the derivatization and GC-MS conditions employed, the purines (dA and dG) gave larger peaks (FIG. 3) than the pyrimidines, resulting in greater sensitivity and a higher signal-to-noise ratio.”
as §3

**Q.** Which “Mean glucose enrichment for the 24 hr infusion period” value ([1]; rat, in vivo) does the source give for `[2H]C([2H])(O)[C@H]1OC(O)[C@H](O)[C@@H](O)[C@@H]1O` (stereo partly drawn) [[6,6-^2H2] glucose] here?
**A.** The value was 9.2±0.6%.

**Q.** And the “Plasma glucose enrichment at sacrifice” value ([1]; rats (n=4), iv infusion approximately 24 hours, fasting)?
**A.** The value was 13.2±0.9%.

**Q.** What about the “Plasma enrichment after discontinuing the intravenous infusion, % of steady-state values” [2] of the same compound?
**A.** The value was under 10%.

**Q.** Which “viral load at failure” value (HIV-1) does the source give for `CC(C)(C)NC(=O)[C@@H]1CN(Cc2cccnc2)CCN1C[C@@H](O)C[C@@H](Cc1ccccc1)C(=O)N[C@H]1c2ccccc2C[C@H]1O` [indinavir] here?
**A.** Its value is 28,000.

**Q.** For `OCC(O)CO` [unlabeled glycerol, glycerol], which “Effect on labeling from 10% [6,6-^2H2] glucose” value [3] is on record?
**A.** The value was “did not affect labeling”.

**Q.** And the “Reduction of incorporation into dA from 10% [6,6-^2H2] glucose” value [4]?
**A.** The value was 7%.
